A word on the DC50: it is the concentration at which degradation of the target reaches its halfway point. For orientation: Dmax means the largest share of the target that was removed.

The assay addresses T1, HPK1 (Homo sapiens, UniProt Q92918).
T1 construct: A HiBiT tag was introduced by CRISPR on the N terminus of HPK1 in Jurkat cells; host or cells: Jurkat cells (ATCC TIB-152), monoclonal line with CRISPR knock-in of HiBiT at the endogenous HPK1 locus
Kind of assay: HPK1 Cellular HiBit Degradation Assay. The format is cell-based. The settings on record: HiBiT HPK1 Jurkat cells, 24 hrs; for DC50: concentration at which 50% of HPK1 was remaining, read-out: DC50 Category; for Dmax: Jurkat, maximum degradation vs DMSO vehicle control, read-out: Dmax Category. Summed up:
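HiBiT-HPK1 Jurkat (CRISPR, N-term tag), 3×10^4 cells/well, RPMI 1640 + 10% FBS; CTMs 10 uM–0.1 nM, 11 pts; 24 hrs, 37° C/5% CO2; lytic HiBiT luminescence; % remaining vs DMSO, parental background subtracted; 4-parameter fit → DC50, Dmax.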

T1 sequence (Q92918 whole entry): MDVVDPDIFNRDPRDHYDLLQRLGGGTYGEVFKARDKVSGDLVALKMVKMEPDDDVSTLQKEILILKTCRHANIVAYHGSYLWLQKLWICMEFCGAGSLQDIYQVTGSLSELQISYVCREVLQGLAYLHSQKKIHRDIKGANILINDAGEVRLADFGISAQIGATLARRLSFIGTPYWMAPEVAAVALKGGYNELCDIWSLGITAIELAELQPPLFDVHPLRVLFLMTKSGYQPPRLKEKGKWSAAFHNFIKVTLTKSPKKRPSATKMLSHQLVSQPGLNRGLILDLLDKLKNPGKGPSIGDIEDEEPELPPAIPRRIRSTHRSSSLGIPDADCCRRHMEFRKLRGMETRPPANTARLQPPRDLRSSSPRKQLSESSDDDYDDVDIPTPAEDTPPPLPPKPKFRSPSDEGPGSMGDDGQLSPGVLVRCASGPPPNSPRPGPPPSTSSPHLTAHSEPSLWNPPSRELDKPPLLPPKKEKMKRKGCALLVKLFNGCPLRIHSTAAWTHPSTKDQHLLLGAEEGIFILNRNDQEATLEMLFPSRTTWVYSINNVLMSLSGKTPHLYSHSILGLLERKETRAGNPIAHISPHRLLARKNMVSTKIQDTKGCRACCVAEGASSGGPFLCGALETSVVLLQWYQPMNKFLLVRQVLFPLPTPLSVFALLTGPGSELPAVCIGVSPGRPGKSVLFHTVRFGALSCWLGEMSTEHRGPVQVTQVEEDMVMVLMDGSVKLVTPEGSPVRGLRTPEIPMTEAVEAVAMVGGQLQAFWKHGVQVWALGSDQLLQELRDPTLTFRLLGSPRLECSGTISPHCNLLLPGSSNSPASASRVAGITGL

As to `Cc1nc(N2CCC(C(=O)N3CCC(C)(C(=O)N4CCC5(CC4)C(=O)N([C@H]4C[C@@H](N6CCCCC6)C4)c4cc(-c6cc7ncn(C(C)C)c7c(Nc7ccccc7F)n6)ccc45)CC3)CC2)ccc1C1CCC(=O)NC1=O` (mixture of isomers) [Example 157, (3RS)-3-[6-(4-{4-[(6-{4-[(2-fluorophenyl)amino]-3-(propan-2-yl)-3H-imidazo[4,5-c]pyridin-6-yl}-2-oxo-1-[(1S,3S)-3-(piperidin-1-yl)cyclobutyl]-1,2-dihydrospiro[indole-3,4′-piperidin]-1′-yl)carbonyl]-4-methylpiperidine-1-carbonyl}piperidin-1-yl)-2-Methylpyridin-3-yl]piperidine-2,6-dione], the 50% degradation concentration (DC50) was 100 to 500 nM and the Dmax lay within 70 to 85%.

As for `CC(C)n1cnc2cc(-c3ccc4c(c3)N([C@H]3C[C@@H](N5CCCCC5)C3)C(=O)C43CCN(S(=O)(=O)C4CCN(C(=O)C5CCN(c6ccc(C7CCC(=O)NC7=O)cn6)CC5)CC4)CC3)nc(NC3CC3)c21` (mixture of isomers) [Example 159, (3RS)-3-(6-{4-[4-({6-[4-(cyclopropylamino)-3-(propan-2-yl)-3H-imidazo[4,5-c]pyridin-6-yl]-2-oxo-1-[(1S,3S)-3-(piperidin-1-yl)cyclobutyl]-1,2-dihydrospiro[indole-3,4′-piperidin]-1′-yl}sulfonyl)piperidine-1-carbonyl]piperidin-1-yl}pyridin-3-yl)piperidine-2,6-dione], the half-maximal degradation concentration (DC50) is less than 100 nM and the Dmax was greater than 85%.

With `CC(C)n1cnc2cc(-c3ccc4c(c3)N([C@H]3C[C@@H](N5CCCCC5)C3)C(=O)C43CCN(C(=O)C4CCN(S(=O)(=O)C5CCN(c6ccc(C7CCC(=O)NC7=O)cn6)CC5)CC4)CC3)nc(NC3CC3)c21` (mixture of isomers) [Example 160, (3RS)-3-[6-(4-{[4-({6-[4-(cyclopropylamino)-3-(propan-2-yl)-3H-imidazo[4,5-c]pyridin-6-yl]-2-oxo-1-[(1S,3S)-3-(piperidin-1-yl)cyclobutyl]-1,2-dihydrospiro[indole-3,4′-piperidin]-1′-yl}carbonyl)piperidin-1-yl]sulfonyl}piperidin-1-yl)pyridin-3-yl]piperidine-2,6-dione], the DC50 is less than 100 nM and the greatest degradation seen (Dmax) was greater than 85%.

As to `CC(C)n1cnc2cc(-c3ccc4c(c3)N([C@H]3C[C@@H](N5CCCCC5)C3)C(=O)C43CCN(C(=O)CC4CCN(C(=O)C5CCN(c6ccc(C7CCC(=O)NC7=O)cn6)CC5)CC4)CC3)nc(NC3CC3)c21` (mixture of isomers) [Example 162, (3RS)-3-(6-{4-[4-(2-{6-[4-(cyclopropylamino)-3-(propan-2-yl)-3H-imidazo[4,5-c]pyridin-6-yl]-2-oxo-1-[(1S,3S)-3-(piperidin-1-yl)cyclobutyl]-1,2-dihydrospiro[indole-3,4′-piperidin]-1′-yl}-2-oxoethyl)piperidine-1-carbonyl]piperidin-1-yl}pyridin-3-yl)piperidine-2,6-dione], the DC50 is less than 100 nM and the Dmax fell in the range of 70 to 85%.

In the case of `CC(C)n1cnc2cc(-c3ccc4c(c3)N([C@H]3C[C@@H](N5CCCCC5)C3)C(=O)C43CCN(C(=O)[C@]4(C)CCN(C(=O)C5CCN(c6ccc(C7CCC(=O)NC7=O)c(F)c6)CC5)C4)CC3)nc(NC3CC3)c21` (mixture of isomers) [Example 185, (3RS)-3-(4-{4-[(3R)-3-({6-[4-(cyclopropylamino)-3-(propan-2-yl)-3H-imidazo[4,5-c]pyridin-6-yl]-2-oxo-1-[(1S,3S)-3-(piperidin-1-yl)cyclobutyl]-1,2-dihydrospiro[indole-3,4′-piperidin]-1′-yl}carbonyl)-3-methylpyrrolidine-1-carbonyl]piperidin-1-yl}-2-fluorophenyl)piperidine-2,6-dione], the DC50 lay in the range of 100 to 500 nM and the Dmax was in the range of 70 to 85%.

As for `CC(C)n1cnc2cc(-c3ccc4c(c3)N([C@H]3C[C@@H](N5CCCCC5)C3)C(=O)C43CCN(C(=O)[C@]4(C)CCN(C(=O)C5CCN(c6ccc(C7CCC(=O)NC7=O)cn6)CC5)C4)CC3)nc(NC3CC3)c21` (mixture of isomers) [Example 186, (3RS)-3-(6-{4-[(3R)-3-({6-[4-(cyclopropylamino)-3-(propan-2-yl)-3H-imidazo[4,5-c]pyridin-6-yl]-2-oxo-1-[(1S,3S)-3-(piperidin-1-yl)cyclobutyl]-1,2-dihydrospiro[indole-3,4′-piperidin]-1′-yl}carbonyl)-3-methylpyrrolidine-1-carbonyl]piperidin-1-yl}pyridin-3-yl)piperidine-2,6-dione], the DC50 is 100 to 500 nM and the Dmax is 70 to 85%.

On to `CC(C(=O)N1CCC2(CC1)C(=O)N([C@H]1C[C@@H](N3CCCCC3)C1)c1cc(-c3cc4ncn(C(C)C)c4c(NC4CC4)n3)ccc12)C1CCN(C(=O)C2CCN(c3ccc(C4CCC(=O)NC4=O)cn3)CC2)CC1` (mixture of isomers) [Example 187, (3RS)-3-(6-{4-[4-(1-{6-[4-(cyclopropylamino)-3-(propan-2-yl)-3H-imidazo[4,5-c]pyridin-6-yl]-2-oxo-1-[(1S,3S)-3-(piperidin-1-yl)cyclobutyl]-1,2-dihydrospiro[indole-3,4′-piperidin]-1′-yl}-1-oxopropan-2-yl)piperidine-1-carbonyl]piperidin-1-yl}pyridin-3-yl)piperidine-2,6-dione], for which the DC50 was less than 100 nM and the greatest degradation seen (Dmax) is 70 to 85%.

`CC(C)n1cnc2cc(-c3ccc4c(c3)N([C@H]3C[C@@H](N5CCCCC5)C3)C(=O)C43CCN(C(=O)C(C)(C)N4CCN(C(=O)C5CCN(c6ccc(C7CCC(=O)NC7=O)cn6)CC5)CC4)CC3)nc(NC3CC3)c21` (mixture of isomers) [Example 188, (3RS)-3-(6-{4-[4-(1-{6-[4-(cyclopropylamino)-3-isopropylimidazo[4,5-c]pyridin-6-yl]-2-oxo-1-[(1S,3S)-3-(piperidin-1-yl)cyclobutyl]spiro[indole-3,4′-piperidin]-1′-yl}-2-methyl-1-oxopropan-2-yl)piperazine-1-carbonyl]piperidin-1-yl}pyridin-3-yl)piperidine-2,6-dione]: the DC50 is less than 100 nM and the greatest degradation seen (Dmax) lay within 70 to 85%.

With `Cc1cc(N2CCC(C(=O)N3CCC(C)(C(=O)N4CCC5(CC4)C(=O)N([C@H]4C[C@@H](N6CCCCC6)C4)c4cc(-c6cc7ncn(C(C)C)c7c(NC7CC7)n6)ccc45)CC3)CC2)ncc1C1CCC(=O)NC1=O` (mixture of isomers) [Example 189, (3RS)-3-(6-{4-[4-({6-[4-(cyclopropylamino)-3-isopropylimidazo[4,5-c]pyridin-6-yl]-2-oxo-1-[(1S,3S)-3-(piperidin-1-yl)cyclobutyl]spiro[indole-3,4′-piperidin]-1′-yl}carbonyl)-4-methylpiperidine-1-carbonyl]piperidin-1-yl}-4-Methylpyridin-3-yl)piperidine-2,6-dione], the DC50 is less than 100 nM and the Dmax lay within 70 to 85%.

For `CC(C)n1cnc2cc(-c3ccc4c(c3)N([C@H]3C[C@@H](N5CCCCC5)C3)C(=O)C43CCN(C(=O)C4(C)CCN(C(=O)[C@H]5CC[C@H](Cn6cc7cc(C8CCC(=O)NC8=O)ccc7n6)CC5)CC4)CC3)nc(Nc3ccccc3F)c21` (mixture of isomers) [Example 190, (3RS)-3-(2-{[(1R,4R)-4-{4-[(6-{4-[(2-fluorophenyl)amino]-3-(propan-2-yl)-3H-imidazo[4,5-c]pyridin-6-yl}-2-oxo-1-[(1S,3S)-3-(piperidin-1-yl)cyclobutyl]-1,2-dihydrospiro[indole-3,4′-piperidin]-1′-yl)carbonyl]-4-methylpiperidine-1-carbonyl}cyclohexyl]methyl}-2H-indazol-5-yl)piperidine-2,6-dione], the DC50 was less than 100 nM and the Dmax was 50 to 70%.

With `CC(C)n1cnc2cc(-c3ccc4c(c3)N([C@H]3C[C@@H](N5CCCCC5)C3)C(=O)C43CCN(C(=O)C4(C)CCN(C(=O)[C@H]5CC[C@H](Nc6ccc(C7CCC(=O)NC7=O)cc6)CC5)CC4)CC3)nc(NC3CC3)c21` (mixture of isomers) [Example 191, (3RS)-3-(4-{[(1R,4R)-4-[4-({6-[4-(cyclopropylamino)-3-(propan-2-yl)-3H-imidazo[4,5-c]pyridin-6-yl]-2-oxo-1-[(1S,3S)-3-(piperidin-1-yl)cyclobutyl]-1,2-dihydrospiro[indole-3,4′-piperidin]-1′-yl}carbonyl)-4-methylpiperidine-1-carbonyl]cyclohexyl]amino}phenyl)piperidine-2,6-dione], the DC50 is less than 100 nM and the Dmax lay within 70 to 85%.

As to `CC(C)n1cnc2cc(-c3ccc4c(c3)N([C@H]3C[C@@H](N5C6CCC5COC6)C3)C(=O)C43CCN(C(=O)C4(C)CCN(C(=O)[C@H]5CC[C@H](Oc6ccc(C7CCC(=O)NC7=O)cc6)CC5)CC4)CC3)nc(NC3CC3)c21` (mixture of isomers) [Example 193, (3RS)-3-(4-{[(1R,4R)-4-[4-({6-[4-(cyclopropylamino)-3-(propan-2-yl)-3H-imidazo[4,5-c]pyridin-6-yl]-2-oxo-1-[(1S,3S)-3-{3-oxa-8-Azabicyclo[3.2.1]octan-8-yl}cyclobutyl]-1,2-dihydrospiro[indole-3,4′-piperidin]-1′-yl}carbonyl)-4-methylpiperidine-1-carbonyl]cyclohexyl]oxy}phenyl)piperidine-2,6-dione], the DC50 was in the range of 100 to 500 nM and the maximal degradation (Dmax) lay within 50 to 70%.

For `CC(C)n1cnc2cc(-c3ccc4c(c3)N([C@H]3C[C@@H](N5CCCCC5)C3)C(=O)C43CCN(C(=O)C4(C)CCN(C(=O)[C@H]5CC[C@H](Oc6ncc(C7CCC(=O)NC7=O)cn6)CC5)CC4)CC3)nc(NC3CC3)c21` (mixture of isomers) [Example 194, (3RS)-3-(2-{[(1R,4R)-4-[4-({6-[4-(cyclopropylamino)-3-(propan-2-yl)-3H-imidazo[4,5-c]pyridin-6-yl]-2-oxo-1-[(1S,3S)-3-(piperidin-1-yl)cyclobutyl]-1,2-dihydrospiro[indole-3,4′-piperidin]-1′-yl}carbonyl)-4-methylpiperidine-1-carbonyl]cyclohexyl]oxy}pyrimidin-5-yl)piperidine-2,6-dione], the half-maximal degradation concentration (DC50) is 100 to 500 nM and the Dmax was in the range of 70 to 85%.

For the origin of these results see US12091426B2, “Bifunctional degraders of hematopoietic progenitor kinase and therapeutic uses thereof” (Nurix Therapeutics, Inc., priority 2021, dated 2024).
